# Test results: paper PMC5962351 (Nature, 2018)
# Tests used:
# Format in all cases: binding
# [1] = target: GluN1 (GluN1/GluN2B NMDA receptor) (Xenopus laevis, UniProt A0A1L8F5J9+A7XY94)
# [2] = target: GluN1 (GluN1/GluN2B ∆ATD NMDA receptor) (Xenopus laevis, UniProt A0A1L8F5J9+A7XY94, A0A1L8F5J9:DEL23-393/A0A1L8F5J9:G610R); experiment: X-ray crystal structure
# [3] = target: GluN1 (GluN1/GluN2B NMDA receptor) (Xenopus laevis, UniProt A0A1L8F5J9+A7XY94, A0A1L8F5J9:G610R); experiment: competition with 3H-MK-801, scintillation proximity assay
smiles,measurement,setting,value
C[C@]12N[C@H](Cc3ccccc31)c1ccccc12 [MK-801],Kd,[1],111 ± 8.5 nM
same,Kd,[2],1600 ± 300 nM
CC12CC3CC(C)(C1)CC(N)(C3)C2 [memantine],Ki,[3],~147000 nM
